In ChEMBL document CHEMBL4507300 (2021):

Columns and labels:
[1] = target: Calcium-dependent protein kinase 1 (Plasmodium falciparum) (UniProt P62344); conditions: Compound concentration 1000.0 nM
[2] = target: Ephrin type-A receptor 2 (Homo sapiens) (UniProt P29317); conditions: Compound concentration 1000.0 nM
[3] = target: Tyrosine-protein kinase Tec (Homo sapiens) (UniProt P42680); conditions: Compound concentration 1000.0 nM
[4] = tested on: Phosphatidylinositol 4,5-bisphosphate 3-kinase catalytic subunit alpha isoform (Homo sapiens), P42336 [E545K]; conditions: Compound concentration 1000.0 nM
[5] = tested on: Phosphatidylinositol 4,5-bisphosphate 3-kinase catalytic subunit alpha isoform (Homo sapiens), P42336 [M1043I]; conditions: Compound concentration 1000.0 nM
[6] = target: Mitogen-activated protein kinase kinase kinase 4 (Homo sapiens) (UniProt Q9Y6R4); conditions: Compound concentration 1000.0 nM
[7] = target: Ephrin type-B receptor 2 (Homo sapiens) (UniProt P29323); conditions: Compound concentration 1000.0 nM
[8] = target: Mitotic checkpoint serine/threonine-protein kinase BUB1 (Homo sapiens) (UniProt O43683); conditions: Compound concentration 1000.0 nM
Sequence of Mitotic checkpoint serine/threonine-protein kinase BUB1 (Homo sapiens) (O43683 whole entry, looked up, canonical isoform): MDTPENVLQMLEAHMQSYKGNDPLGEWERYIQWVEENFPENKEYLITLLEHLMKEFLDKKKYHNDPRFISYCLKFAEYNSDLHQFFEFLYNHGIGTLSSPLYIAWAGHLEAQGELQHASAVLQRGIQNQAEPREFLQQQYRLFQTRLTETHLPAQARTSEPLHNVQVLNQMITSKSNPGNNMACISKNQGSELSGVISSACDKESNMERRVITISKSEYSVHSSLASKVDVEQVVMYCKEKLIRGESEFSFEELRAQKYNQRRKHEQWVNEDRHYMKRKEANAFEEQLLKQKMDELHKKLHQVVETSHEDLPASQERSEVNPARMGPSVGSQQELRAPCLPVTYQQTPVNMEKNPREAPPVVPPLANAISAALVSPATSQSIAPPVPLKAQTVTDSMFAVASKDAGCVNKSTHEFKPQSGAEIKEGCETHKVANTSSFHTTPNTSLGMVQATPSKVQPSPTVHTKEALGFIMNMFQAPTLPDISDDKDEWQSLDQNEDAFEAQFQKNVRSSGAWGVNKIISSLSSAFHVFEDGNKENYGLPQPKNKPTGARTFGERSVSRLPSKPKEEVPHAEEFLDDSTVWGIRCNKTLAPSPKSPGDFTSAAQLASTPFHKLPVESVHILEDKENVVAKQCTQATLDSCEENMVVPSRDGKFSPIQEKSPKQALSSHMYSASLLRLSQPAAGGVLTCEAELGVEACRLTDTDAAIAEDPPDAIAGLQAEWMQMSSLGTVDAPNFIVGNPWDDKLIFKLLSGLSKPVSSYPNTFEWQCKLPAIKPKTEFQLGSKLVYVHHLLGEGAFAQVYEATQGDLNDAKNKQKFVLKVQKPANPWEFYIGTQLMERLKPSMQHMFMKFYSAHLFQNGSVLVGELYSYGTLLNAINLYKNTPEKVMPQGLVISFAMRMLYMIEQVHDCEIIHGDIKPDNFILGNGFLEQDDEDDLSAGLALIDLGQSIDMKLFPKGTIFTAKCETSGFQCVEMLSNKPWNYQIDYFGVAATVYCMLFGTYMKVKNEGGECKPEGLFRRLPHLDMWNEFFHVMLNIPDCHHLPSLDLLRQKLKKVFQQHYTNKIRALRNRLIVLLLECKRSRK

[9] = target: Casein kinase I isoform gamma-2 (Homo sapiens) (UniProt P78368); conditions: Compound concentration 1000.0 nM
[10] = target: cAMP-dependent protein kinase catalytic subunit PRKX (Homo sapiens) (UniProt P51817); conditions: Compound concentration 1000.0 nM
[11] = target: Mitogen-activated protein kinase kinase kinase 19 (Homo sapiens) (UniProt Q56UN5); conditions: Compound concentration 1000.0 nM
Sequence of Mitogen-activated protein kinase kinase kinase 19 (Homo sapiens) (Q56UN5 whole entry): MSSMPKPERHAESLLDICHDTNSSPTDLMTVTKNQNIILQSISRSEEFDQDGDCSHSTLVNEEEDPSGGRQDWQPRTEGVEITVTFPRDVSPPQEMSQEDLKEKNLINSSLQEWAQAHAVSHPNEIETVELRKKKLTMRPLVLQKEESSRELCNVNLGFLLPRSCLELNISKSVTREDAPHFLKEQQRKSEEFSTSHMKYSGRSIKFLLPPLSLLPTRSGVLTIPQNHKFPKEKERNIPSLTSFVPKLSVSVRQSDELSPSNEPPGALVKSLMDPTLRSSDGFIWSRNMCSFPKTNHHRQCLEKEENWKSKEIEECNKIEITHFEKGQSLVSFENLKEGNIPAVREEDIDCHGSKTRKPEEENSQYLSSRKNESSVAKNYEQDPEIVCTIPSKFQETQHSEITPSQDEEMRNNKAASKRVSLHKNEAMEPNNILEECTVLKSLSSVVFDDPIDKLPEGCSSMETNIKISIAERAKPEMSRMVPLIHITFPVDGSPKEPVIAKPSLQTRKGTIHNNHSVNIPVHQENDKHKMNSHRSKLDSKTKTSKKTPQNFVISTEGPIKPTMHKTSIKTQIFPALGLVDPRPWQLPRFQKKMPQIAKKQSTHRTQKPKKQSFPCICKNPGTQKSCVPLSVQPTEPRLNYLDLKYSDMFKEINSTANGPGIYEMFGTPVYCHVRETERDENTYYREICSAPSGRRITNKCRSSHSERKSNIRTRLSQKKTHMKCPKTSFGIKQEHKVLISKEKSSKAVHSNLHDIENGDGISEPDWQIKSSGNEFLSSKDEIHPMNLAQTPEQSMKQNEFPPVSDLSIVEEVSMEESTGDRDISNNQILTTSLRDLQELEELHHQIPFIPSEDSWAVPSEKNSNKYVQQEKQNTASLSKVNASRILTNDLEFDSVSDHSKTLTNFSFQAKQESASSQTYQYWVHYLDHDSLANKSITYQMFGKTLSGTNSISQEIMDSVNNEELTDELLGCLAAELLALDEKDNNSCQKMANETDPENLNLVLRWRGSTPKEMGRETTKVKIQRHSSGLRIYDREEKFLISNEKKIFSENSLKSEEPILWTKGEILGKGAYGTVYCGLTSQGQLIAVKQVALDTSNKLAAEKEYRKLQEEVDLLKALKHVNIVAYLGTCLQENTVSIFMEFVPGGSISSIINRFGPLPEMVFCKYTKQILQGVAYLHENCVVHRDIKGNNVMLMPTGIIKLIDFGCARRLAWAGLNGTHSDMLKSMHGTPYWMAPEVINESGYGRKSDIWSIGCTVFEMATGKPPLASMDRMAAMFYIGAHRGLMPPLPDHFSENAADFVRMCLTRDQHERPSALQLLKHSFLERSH

[12] = target: Ribosomal protein S6 kinase alpha-3 (Homo sapiens) (UniProt P51812); conditions: Compound concentration 1000.0 nM
[13] = target: Serine/threonine-protein kinase Nek1 (Homo sapiens) (UniProt Q96PY6); conditions: Compound concentration 1000.0 nM
[14] = target: Serine/threonine-protein kinase ULK3 (Homo sapiens) (UniProt Q6PHR2); conditions: Compound concentration 1000.0 nM
[15] = target: Serine/threonine-protein kinase haspin (Homo sapiens) (UniProt Q8TF76); conditions: Compound concentration 1000.0 nM
[16] = tested on: Receptor-type tyrosine-protein kinase FLT3 (Homo sapiens), P36888 [UNDEFINED MUTATION]; conditions: Compound concentration 1000.0 nM
Sequence of Receptor-type tyrosine-protein kinase FLT3 (Homo sapiens), P36888 [UNDEFINED MUTATION] (P36888 whole entry, looked up, stated change not applied): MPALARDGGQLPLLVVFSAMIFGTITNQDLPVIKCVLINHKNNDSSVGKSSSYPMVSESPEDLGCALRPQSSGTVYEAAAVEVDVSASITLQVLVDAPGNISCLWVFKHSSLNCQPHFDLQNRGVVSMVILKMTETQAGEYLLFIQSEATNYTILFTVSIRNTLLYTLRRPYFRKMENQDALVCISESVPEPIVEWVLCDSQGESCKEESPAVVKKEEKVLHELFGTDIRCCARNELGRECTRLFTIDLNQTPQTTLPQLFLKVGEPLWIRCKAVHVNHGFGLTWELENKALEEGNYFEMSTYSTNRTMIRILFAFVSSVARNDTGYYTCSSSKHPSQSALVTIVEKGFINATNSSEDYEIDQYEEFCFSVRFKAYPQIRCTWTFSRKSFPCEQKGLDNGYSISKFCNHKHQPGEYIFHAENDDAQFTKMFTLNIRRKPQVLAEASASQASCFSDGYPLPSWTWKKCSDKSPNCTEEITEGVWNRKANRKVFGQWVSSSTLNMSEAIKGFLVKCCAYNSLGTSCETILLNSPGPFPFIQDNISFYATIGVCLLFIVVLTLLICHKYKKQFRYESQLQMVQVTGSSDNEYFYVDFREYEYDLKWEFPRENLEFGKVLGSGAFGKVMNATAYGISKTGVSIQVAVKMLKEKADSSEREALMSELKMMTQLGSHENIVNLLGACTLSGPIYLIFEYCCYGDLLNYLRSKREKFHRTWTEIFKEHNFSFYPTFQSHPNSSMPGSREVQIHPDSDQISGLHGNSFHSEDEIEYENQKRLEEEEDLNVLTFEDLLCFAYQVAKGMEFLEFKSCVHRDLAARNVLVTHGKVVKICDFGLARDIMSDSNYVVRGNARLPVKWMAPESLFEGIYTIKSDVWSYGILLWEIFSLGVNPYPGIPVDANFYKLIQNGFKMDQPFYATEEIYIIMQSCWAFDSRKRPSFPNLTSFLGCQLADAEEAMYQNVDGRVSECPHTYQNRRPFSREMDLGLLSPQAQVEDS

[17] = tested on: Epidermal growth factor receptor (Homo sapiens), P00533 [L858R]; conditions: Compound concentration 1000.0 nM
[18] = target: Phosphatidylinositol 5-phosphate 4-kinase type-2 gamma (Homo sapiens) (UniProt Q8TBX8); conditions: Compound concentration 1000.0 nM
[19] = target: Calcium/calmodulin-dependent protein kinase type 1G (Homo sapiens) (UniProt Q96NX5); conditions: Compound concentration 1000.0 nM
[20] = target: Cytoplasmic tyrosine-protein kinase BMX (Homo sapiens) (UniProt P51813); conditions: Compound concentration 1000.0 nM
[21] = target: Calcium/calmodulin-dependent protein kinase type II subunit gamma (Homo sapiens) (UniProt Q13555); conditions: Compound concentration 1000.0 nM
[22] = target: Dual specificity mitogen-activated protein kinase kinase 2 (Homo sapiens) (UniProt P36507); conditions: Compound concentration 1000.0 nM
[23] = target: Receptor-interacting serine/threonine-protein kinase 4 (Homo sapiens) (UniProt P57078); conditions: Compound concentration 1000.0 nM
[24] = target: Tyrosine-protein kinase ABL1 (Homo sapiens) (UniProt P00519); conditions: Compound concentration 1000.0 nM
[25] = target: Beta-2 adrenergic receptor (Homo sapiens) (UniProt P07550); conditions: Compound concentration 10.0 uM
Sequence of Beta-2 adrenergic receptor (Homo sapiens) (P07550 whole entry, looked up): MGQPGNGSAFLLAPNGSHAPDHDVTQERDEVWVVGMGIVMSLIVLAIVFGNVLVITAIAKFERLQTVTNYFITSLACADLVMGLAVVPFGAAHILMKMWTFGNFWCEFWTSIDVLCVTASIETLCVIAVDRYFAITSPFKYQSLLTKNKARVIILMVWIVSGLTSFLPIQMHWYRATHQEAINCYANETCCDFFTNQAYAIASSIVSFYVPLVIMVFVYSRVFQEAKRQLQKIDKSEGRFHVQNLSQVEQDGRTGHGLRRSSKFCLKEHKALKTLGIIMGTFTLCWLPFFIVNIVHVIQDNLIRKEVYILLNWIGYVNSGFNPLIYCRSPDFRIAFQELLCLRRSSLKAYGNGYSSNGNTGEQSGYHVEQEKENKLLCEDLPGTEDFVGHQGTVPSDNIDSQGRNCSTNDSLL

[26] = tested on: Receptor-type tyrosine-protein kinase FLT3 (Homo sapiens), P36888 [UNDEFINED MUTATION]; conditions: Compound concentration 1000.0 nM; remark: listed apart in the source
[27] = target: Alpha-2B adrenergic receptor (Homo sapiens) (UniProt P18089); conditions: Compound concentration 10.0 uM
[28] = target: Serine/threonine-protein kinase WNK3 (Homo sapiens) (UniProt Q9BYP7); conditions: Compound concentration 1000.0 nM
[29] = target: Myosin light chain kinase 2, skeletal/cardiac muscle (Homo sapiens) (UniProt Q9H1R3); conditions: Compound concentration 1000.0 nM
[30] = target: Cyclin-dependent kinase-like 3 (Homo sapiens) (UniProt Q8IVW4); conditions: Compound concentration 1000.0 nM
[31] = target: Platelet-derived growth factor receptor beta (Homo sapiens) (UniProt P09619); conditions: Compound concentration 1000.0 nM
Sequence of Platelet-derived growth factor receptor beta (Homo sapiens) (P09619 whole entry): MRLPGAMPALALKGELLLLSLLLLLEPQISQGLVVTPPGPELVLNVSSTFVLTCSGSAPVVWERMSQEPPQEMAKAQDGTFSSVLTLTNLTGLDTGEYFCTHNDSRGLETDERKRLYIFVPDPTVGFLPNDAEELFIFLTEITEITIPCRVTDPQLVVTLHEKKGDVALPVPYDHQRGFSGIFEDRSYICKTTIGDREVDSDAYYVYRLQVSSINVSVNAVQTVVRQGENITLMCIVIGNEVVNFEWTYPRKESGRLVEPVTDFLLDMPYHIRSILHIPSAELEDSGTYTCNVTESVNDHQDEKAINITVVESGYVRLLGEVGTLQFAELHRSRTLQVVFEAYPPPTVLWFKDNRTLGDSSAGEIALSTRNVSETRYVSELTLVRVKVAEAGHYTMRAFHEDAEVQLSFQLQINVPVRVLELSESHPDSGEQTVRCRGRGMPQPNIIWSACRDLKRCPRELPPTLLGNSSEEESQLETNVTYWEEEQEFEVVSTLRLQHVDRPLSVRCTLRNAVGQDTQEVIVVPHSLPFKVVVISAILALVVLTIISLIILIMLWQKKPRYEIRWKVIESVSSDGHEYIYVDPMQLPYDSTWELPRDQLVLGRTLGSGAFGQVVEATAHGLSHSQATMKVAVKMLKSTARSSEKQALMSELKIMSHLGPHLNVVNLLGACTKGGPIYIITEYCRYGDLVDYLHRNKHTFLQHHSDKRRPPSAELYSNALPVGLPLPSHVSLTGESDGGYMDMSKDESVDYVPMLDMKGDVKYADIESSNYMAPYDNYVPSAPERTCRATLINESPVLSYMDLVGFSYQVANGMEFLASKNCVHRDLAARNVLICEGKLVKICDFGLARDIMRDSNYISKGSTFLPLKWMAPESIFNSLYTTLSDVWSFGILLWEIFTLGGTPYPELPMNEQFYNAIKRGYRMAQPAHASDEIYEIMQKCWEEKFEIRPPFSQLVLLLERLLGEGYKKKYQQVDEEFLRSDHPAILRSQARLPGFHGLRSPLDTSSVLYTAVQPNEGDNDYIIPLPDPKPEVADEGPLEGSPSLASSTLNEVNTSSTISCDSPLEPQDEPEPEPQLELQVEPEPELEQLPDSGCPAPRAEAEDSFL

[32] = target: Vascular endothelial growth factor receptor 3 (Homo sapiens) (UniProt P35916); conditions: Compound concentration 1000.0 nM
[33] = target: Mitogen-activated protein kinase kinase kinase 3 (Homo sapiens) (UniProt Q99759); conditions: Compound concentration 1000.0 nM
[34] = target: Ribosomal protein S6 kinase beta-1 (Homo sapiens) (UniProt P23443); conditions: Compound concentration 1000.0 nM
[35] = target: Casein kinase I isoform alpha (Homo sapiens) (UniProt P48729); conditions: Compound concentration 1000.0 nM
[36] = target: Tyrosine-protein kinase Srms (Homo sapiens) (UniProt Q9H3Y6); conditions: Compound concentration 1000.0 nM
[37] = target: Serine/threonine-protein kinase RIO1 (Homo sapiens) (UniProt Q9BRS2); conditions: Compound concentration 1000.0 nM
[38] = target: Ephrin type-B receptor 1 (Homo sapiens) (UniProt P54762); conditions: Compound concentration 1000.0 nM
[39] = target: Cyclin-dependent kinase 16 (Homo sapiens) (UniProt Q00536); conditions: Compound concentration 1000.0 nM
[40] = target: TGF-beta receptor type-1 (Homo sapiens) (UniProt P36897); conditions: Compound concentration 1000.0 nM
[41] = tested on: Tyrosine-protein kinase ABL1 (Homo sapiens), P00519 [M351T]; conditions: Compound concentration 1000.0 nM
[42] = target: Ribosomal protein S6 kinase alpha-5 (Homo sapiens) (UniProt O75582); conditions: Compound concentration 1000.0 nM
[43] = tested on: Tyrosine-protein kinase ABL1 (Homo sapiens), P00519 [H396P]; conditions: Compound concentration 1000.0 nM
[44] = target: Epithelial discoidin domain-containing receptor 1 (Homo sapiens) (UniProt Q08345); conditions: Compound concentration 1000.0 nM

COc1cccc(CNC(=O)c2nc3scc(COCc4ccc(C(=O)O)cc4)c3c(=O)[nH]2)c1 [T-26c]
inactive: residual activity [1] 72.7% | residual activity [2] 100% | residual activity [3] 86% | residual activity [4] 86.3% | residual activity [5] 100% | residual activity [6] 86.6% | residual activity [7] 95.7% | residual activity [8] 70.2% | residual activity [9] 97.2% | residual activity [10] 100% | residual activity [11] 79.2% | residual activity [12] 56.5% | residual activity [13] 100% | residual activity [14] 76% | residual activity [15] 92.5% | residual activity [16] 63% | residual activity [17] 88.3% | residual activity [18] 74.7% | residual activity [19] 100% | residual activity [20] 100% | residual activity [21] 100% | residual activity [22] 75.1% | residual activity [23] 67.1% | residual activity [24] 85% | inhibition [25] 25.4% | residual activity [26] 93.7% | inhibition [27] 11% | residual activity [28] 83.6% | residual activity [29] 100% | residual activity [30] 100% | residual activity [31] 99% | residual activity [32] 100% | residual activity [33] 78.9% | residual activity [34] 96.1% | residual activity [35] 82.1% | residual activity [36] 78.3% | residual activity [37] 52.1% | residual activity [38] 90.9% | residual activity [39] 91.9% | residual activity [40] 83.2% | residual activity [41] 84.4% | residual activity [42] 98% | residual activity [43] 83.6% | residual activity [44] 100%
